Patent US20240415878A1, “Compositions and Methods for Modulating Mitochondrial Function” (Board of Regents, The University of Texas System, priority 2021, published 2024)

Columns and labels:
Format in all cases: cell-based, murine
WT hepatocytes [1] = test: Mitochondrial oxygen consumption rate and extracellular acidification rate (Seahorse)
Description: (§1) CPACC treatment enhances adipose browning and lowers whole body weight. Given the potent mMg^2+ uptake inhibiting properties and low toxicity of CPACC, we hypothesized that CPACC could mimic Mrs2^−/− cellular phenotype. WT hepatocytes isolated from over 12 months old mice were treated with 50 μM CPACC for 48 hours. Control and CPACC treated hepatocytes were stained with BODIPY and TMRE for intracellular tracing using confocal imaging. […] Next it was determined if CPACC treatment affects the mitochondrial oxygen consumption rate. Freshly isolated WT hepatocytes were treated with 5-25 μM concentrations of CPACC for 16 hours before measurement of oxygen consumption rate. […] Since it was observed an enhancement of basal OCR in CPACC treated hepatocytes, the extracellular acidification rate was measured in control and CPACC treated hepatocytes and found it to be higher in the CPACC condition indicating higher glycolytic activity (FIG. 11G). […]
Mitochondrial oxygen consumption rate. […] Oxygen consumption rate (OCR) was measured at 37° C. in an XF96 extracellular flux analyzer (Seahorse Bioscience, Agilent) calibrated using Seahorse XF Calibrant solution (Seahorse Bioscience, Agilent) in a CO2-free incubator overnight. […] Data was collected using Agilent Seahorse Wave 2.6.1 Desktop software and analyzed using GraphPad Prism version 8 (Irrinki et al., 2011; Tomar et al., 2016).

WT hepatocytes [2] = test: Confocal BODIPY/TMRE imaging of lipid droplets and mitochondrial potential in hepatocytes; conditions: 50 μM, 48 hours
Description: as §1
Confocal microscopic examination of cellular lipid localization and maintenance. […] Leica Application Suite X was used to quantify lipid-mitochondrial colocalization using line scan analysis followed by smooth curve fitting. […] The lipid droplet sizes and mitochondrial membrane potential were quantified using both Leica Application Suite X and ImageJ. All data was analyzed using GraphPad Prism v8.

Mrs2 = biological target: T1, Mrs2 (Mus musculus, UniProt Q5NCE8); test: Mrs2 inhibition in intact hepatocytes loaded with Mag-Green-AM, confocal, L-lactate stimulation; conditions: 5 μM
T1 construct: endogenous in cells; host or cells: primary murine hepatocytes (C57BL/6J mice)
T1 sequence (Q5NCE8 54-434): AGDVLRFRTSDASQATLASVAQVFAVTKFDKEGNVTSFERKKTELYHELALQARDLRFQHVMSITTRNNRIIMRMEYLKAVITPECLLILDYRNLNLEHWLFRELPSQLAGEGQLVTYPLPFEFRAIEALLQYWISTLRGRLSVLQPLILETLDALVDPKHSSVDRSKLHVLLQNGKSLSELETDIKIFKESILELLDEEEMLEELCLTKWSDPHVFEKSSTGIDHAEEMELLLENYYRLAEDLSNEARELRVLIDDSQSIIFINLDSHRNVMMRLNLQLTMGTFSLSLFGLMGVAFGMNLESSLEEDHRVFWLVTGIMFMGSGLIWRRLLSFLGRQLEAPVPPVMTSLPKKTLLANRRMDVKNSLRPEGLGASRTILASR
Description: Bacterial CorA forms a pentameric complex that selectively drives Mg2+ uptake in an electrogenic manner. […] Mrs2 is the eukaryotic homologue of CorA and contains two transmembrane domains with a well-conserved F/Y-G-M-N motif; therefore, CorA blockers were tested to determine if they alter Mrs2-mediated mMg^2+ uptake (Moomaw and Maguire, 2008). Digitonin permeabilized hepatocytes were utilized to measure the inhibitory effect and determine its IC50. Permeabilized cells were treated with CPACC followed by a 1 mM bolus of MgCl2 (FIG. 10B). A 1 mM Mg^2+ bolus was added after baseline recording, and the extramitochondrial Mg^2+ clearance was used as a read-out for Mrs2-mediated mMg^2+ uptake using Mag-Green as a Mg^2+ indicator. […] We next investigated Mrs2 inhibition in intact hepatocytes loaded with Mag-Green-AM. […] Next CPACC was examined to determine if it had any effect on MCU-mediated mCa^2+ uptake in permeabilized cells. […] The availability of the compound to intact cells was measured using graphite furnace atomic absorption spectroscopy (GFAAS) and bicinchoninic acid in parallel. […] Encouraged by the potent inhibitory effect of CPACC and cellular permeability, we next measured the cytotoxicity of CPACC in cells. […]
Evaluation of dose dependent Mrs2 inhibition by confocal live cell imaging system. […] Data was quantified using Leica Application Suite X.

Q: How did the “maximal OCR” value (WT hepatocytes [1]; 5-25 μM, 16 hours) turn out when `[NH2][Co]([NH2])([NH2])([NH2])([NH2])[Cl]` [CPACC, chloropentaammine cobalt (III) chloride] was run?
A: without a significant effect

Q: And the extracellular acidification rate (WT hepatocytes [1]; treated versus control hepatocytes)?
A: higher

Q: And the “effect on mitochondrial function (TMRE)” value (WT hepatocytes [2])?
A: no negative effect

Q: And the lipid droplet size (WT hepatocytes [2]; hepatocytes from over 12 months old mice)?
A: marked reduction of lipid droplet size

Q: What about the “Mitochondrial Mg^2+ uptake following L-lactate stimulation” value (Mrs2) of the same compound?
A: significantly inhibited
